# Where a name gives a salt, the structure may show the parent alone.
# Assays:
# [1] = test system: spinocerebellar ataxia (SCA); assay: Phase 3 clinical study of troriluzole in spinocerebellar ataxia: f-SARA total score change; assay type: in vivo, human; conditions: for LS mean change difference in f-SARA score from baseline vs placebo: Week 48, 200 mg daily
# Description: Phase 3 Clinical Study for Troriluzole in Adult Subjects with Spinocerebellar Ataxia
# (§1) The purpose of this study is to compare the efficacy of Troriluzole (200 mg once daily) versus placebo after 48 weeks of treatment in subjects with spinocerebellar ataxia (SCA).
# (§2) • Study Type: Interventional (Clinical Trial) • Actual Enrollment: 218 participants • Allocation: Randomized • Intervention Model: Parallel Assignment • Masking: Triple (Participant, Care Provider, Investigator) • Primary Purpose: Treatment • Official Title: A Phase III, Long-Term, Randomized, Double-blind, Placebo-controlled Trial of Troriluzole in Adult Subjects With Spinocerebellar Ataxia.
# (§3) • Arm • Experimental: Arm 1: BHV-4157 • Troriluzole 200 mg by mouth • Placebo Comparator: Arm 2: Placebo • Placebo 200 mg by mouth • Intervention/Treatment • Drug: troriluzole • 200 mg by mouth • Drug: placebo • 200 mg by mouth
# • 1. Change from Baseline in the total score of the Modified Functional Scale for the Assessment and Rating of Ataxia (f-SARA) after 48 weeks of treatment. [Time Frame: Baseline to week 48] • An increase in the total score indicates a worsening of symptoms.
# • 1. Subjects with a known or suspected diagnosis of the following specific hereditary ataxias: SCA1, SCA2, SCA3, SCA6, SCA7, SCA8 and SCA10; currently only enrolling SCA 1, SCA2, SCA3, SCA7, and SCA10 (the cap has been met for SCA6 and SCA8 (on May 31, 2019)); • a. A subject should have a confirmed genotypic diagnosis from a CLIA certified lab (can produce test results); or • b. A subject has a family member that has a confirmed genotypic diagnosis from a CLIA certified lab (can produce test results) and must be willing to undergo genetic testing to confirm underlying SCA diagnosis; or • c. A subject has a confirmed genotypic diagnosis from a lab that is not CLIA certified and must be willing to undergo genetic testing to confirm underlying SCA diagnosis; or • d. […] Ability to ambulate 8 meters without human assistance (canes and other devices allowed). • 3. Screening f-SARA total score ≥3. • 4. Score of ≥1 on gait subsection of the f-SARA. • 5. Determined by the investigator to be medically stable at Baseline/randomization as assessed by medical history, physical examination, laboratory test results, and electrocardiogram testing.
# • 1. A ≥2-point difference on the Modified Functional SARA score between screening and baseline. • 2. MMSE score <24. • 3. […] A prominent spasticity or dystonia that, in the opinion of the investigator, will compromise the ability of the SARA instrument to assess underlying ataxia severity. • 5. A score of 4 on any individual item (Items 1-4) of the f-SARA. • 6. Subjects should be excluded at screening or baseline if medical conditions have arisen or there is a change in disease status that could confound the ability of the SARA to accurately reflect changes in ataxia severity. • 7. Active liver disease or a history of hepatic intolerance to medications that in the investigator's judgment, is medically significant.
# [2] = test system: spinocerebellar ataxia (SCA); assay: Phase 3 clinical study: adverse events of fall, safety and tolerability; assay type: in vivo, human
# Description: as §1, §2, §3
# • 1. Change from baseline in Patient Impression of Function and Activities of Daily Living Scale (PIFAS) score at Randomization Phase Week 48. [Time Frame: Baseline to week 48] • An increase in the total score indicates a worsening of symptoms. • 2. Change from baseline in Activities of Daily Living Scale from the Friedreich's Ataxia Rating Scale (FARS-ADL) at Randomization Week 48. [Time Frame: Baseline to week 48] • An increase in the total score indicates a worsening of symptoms. • 3. Change from baseline in Functional Staging for Ataxia from the Friedreich's Ataxia Rating Scale (FARS-FUNC) at Randomization Phase Week 48. [Time Frame: Baseline to week 48] • An increase in the total score indicates a worsening of symptoms. • 4. Frequency of subjects with the following adverse events (AEs) identified from case report forms: AEs (by severity; by relationship to study drug; overall); SAEs; and AEs leading to treatment discontinuation. [Time Frame: Baseline to week 48]
# [3] = Solubility of drug substance in water; assay type: physicochemical
smiles,measurement,setting,value
"CN(CC(=O)Nc1nc2ccc(OC(F)(F)F)cc2s1)C(=O)CNC(=O)CN [troriluzole, 2-amino-N-({methyl-[(6-trifluoromethoxy-benzothiazol-2-ylcarbamoyl)-methyl]-carbamoyl}-methyl)-acetamide monohydrate monohydrochloride]",LS mean change difference compared to placebo,"[1]; SCA3 patient able to walk without assistance at baseline, week 4, 200 mg daily",at least −0.67
same,LS mean change difference compared to placebo,"[1]; SCA3 patient, week 4, 200 mg daily",at least −0.46
same,LS mean change difference compared to placebo,"[1]; SCA3 patient, week 8, 200 mg daily (first statement)",at least −0.12
same,LS mean change difference compared to placebo,"[1]; SCA3 patient, week 8, 200 mg daily (subgroup not given)",at least −0.33
same,LS mean change difference compared to placebo,"[1]; SCA3 patient, week 12, 200 mg daily (first statement)",at least −0.46
same,LS mean change difference compared to placebo,"[1]; SCA3 patient, week 12, 200 mg daily (subgroup not given)",at least −0.71
same,LS mean change difference compared to placebo,"[1]; SCA3 patient, week 24, 200 mg daily (first statement)",at least −0.17
same,LS mean change difference compared to placebo,"[1]; SCA3 patient, week 24, 200 mg daily (subgroup not given)",at least −0.40
same,LS mean change difference compared to placebo,"[1]; SCA3 patient, week 36, 200 mg daily (first statement)",at least −0.72
same,LS mean change difference compared to placebo,"[1]; SCA3 patient, week 36, 200 mg daily (subgroup not given)",at least −0.55
same,LS mean change difference in f-SARA score from baseline vs placebo,"[1]; SCA3 patients able to walk without assistance at baseline (f-SARA Gait Item score=1), nominal p=0.031, 95% CI −1.36, −0.07",−0.71
same,LS mean change difference in f-SARA score from baseline vs placebo,"[1]; SCA3 subgroup, nominal p=0.053, 95% CI −1.12, 0.01, post-hoc",−0.55
same,"primary endpoint, change from baseline to Week 48 on f-SARA (statistical outcome)","[1]; overall SCA population, 200 mg once daily vs placebo, 48 weeks, p=0.76",did not reach statistical significance
same,f-SARA score at the 48-week endpoint,"[1]; overall study population N=213, mean baseline score 4.9, 200 mg once daily, placebo 5.2",5.1
same,reduction of fall risk versus placebo,"[2]; SCA3 genotype, patient reported falls as adverse events, nominal p=0.04",approximately 50%
same,AE incidence of falls,"[2]; SCA3 genotype, placebo 32%",16%
same,reduction of fall risk versus placebo,"[2]; all genotypes, patients able to ambulate at baseline (f-SARA Gait Item score=1), nominal p=0.043",approximately 59%
same,AE incidence of falls,"[2]; all genotypes, patients able to ambulate at baseline (f-SARA Gait Item score=1), placebo 23%",10%
same,safety and tolerability profile,"[2]; overall, Phase 3 study",favorable safety and tolerability profile
same,solubility in water,[3],freely soluble in water

# Source: patent US20260124183A1, “METHODS OF TREATING SPINOCEREBELLAR ATAXIAS” (Biohaven Therapeutics Ltd., priority 2022, published 2026)
